Values joined by “and” are separate entries in the source; they are usually repeats but may differ in a detail not shown here. Equal values may be shown once. Read-outs that look alike come from different tables or passages of the source.
What was measured:
AAV-LIRKO and WT mice = assay: Glucose lowering in AAV-LIRKO versus WT mice; format: in vivo, mouse; settings: glucose lowering efficacy; RHI 30, Levemir 24, IRPA-5 120, IRPA-6 60 nmol/kg
Protocol: Male C57BL/6 mice and Sprague-Dawley rats were obtained from Taconic Farms (Germantown, NY, USA). AAV-LIRKO mice were developed by AAV-Cre injection into conditional IR KO mice (B6.129S4(FVB)-Insr^tm1Khn/J from Jackson Laboratory; Fig. S3). To generate streptozotocin (STZ)-induced diabetic mouse, male C57BL/6 mice were treated with a single intraperitoneal (i.p.; 100 mg/kg) injection of STZ (Sigma Chemical, St. Louis, MO, USA).
6. Mouse models and related studies
LIRKO mouse model generation
Jackson Laboratory, #6955). Male mice at 8 weeks of age maintained on chow diet (Teklad 7002) were administered AAV-cre via tail vein injection as doses indicated on Fig. S4. Mice were studied 4 weeks following AAV injection for ITT or put on HFD (Research Diets, D12492) for 4 weeks before glucose lowering studies were executed.
IRPA studies in HFD-STZ mice
HFD-STZ mice were developed as previously described 40 and were groups based on their glucose ranges. Acute glucose lowering efficacy of IRPAs in healthy and HFD -STZ mice were evaluated upon administration of escalating doses of test molecules, which was expressed as area over the curve (AOC) relative to vehicle.
Intact, male Beagle dogs (2-8 years old) were either purchased from Marshall Bioresources or acquired from other in-house programs. […]

ApoE KO mice [1] = assay: Aortic plaque in ApoE KO mice (Sudan IV staining, en face aorta); format: in vivo, mouse; settings: Fig. 6h; one value per animal
Protocol: (§1) Fig. 6 Beneficial IRPA effects beyond glycemic control. Glucose, body weight and hepatic triglyceride (TG) lowering by IRPA alone or in combination with a GLP-1 analog in mouse studies (a–d). Glucose lowering acutely (a) or during chronic QD dosing (b; 2-h post dose on day 11) in diabetic mice. Body weight (c) and liver triglyceride (d) changes at the end of 14-day QD dosing. […] Data is presented as mean ± SD. N = 8. p value is calculated using one-way ANOVA with Tukey’s multiple comparisons test: b1 < 0.001 vs. vehicle, b2 < 0.001 and b3 = 0.002 for indicated comparisons; c1 = 0.008 and c2 = 0.0001 vs. vehicle, c3 < 0.0001 for indicated comparisons; d1 < 0.001 vs. vehicle. IRPA reduces aortic plaque in ApoE KO mice (e–h). There was no significant body weight or cholesterol change from baseline by RHI or IRPA-3 (e, g). […] Data is presented as mean ± SD. p value is calculated using one-way ANOVA with Tukey’s multiple comparisons test: f1 = 0.0034 and f2 = 0.035 vs. vehicle; h1 = 0.046 vs. vehicle. […] Source data are provided as a Source Data file. […]

ApoE KO mice [2] = assay: Body weight in ApoE KO mice, 8 weeks s.c. pump; format: in vivo, mouse; settings: Fig. 6e; one value per animal
Protocol: as §1

[3] = system: differentiated mouse 3T3 L1 adipocytes; assay: [14C]-2-deoxyglucose uptake in differentiated mouse 3T3 L1 adipocytes; format: cell-based; settings: four-parameter fit; read-out: 2DG uptake in 3T3 L1 adipocytes EC50
Protocol: and phosphatase inhibitors for 30 minutes. The lysates were applied to the modified MSD Elisa assays to measure phosphorylation of different tyrosine residues on insulin receptor. Briefly, lysates were added to custom MSD IR plates (MSD cat# N45CA-1). Phosphorylation of tyrosine on IR were measured using antibody against pY960 (rabbit mAb, Cell Applications #CB4378) or pY1345 (rabbit mAb 14A4, Cell Signaling #3026), respectively in combination with SULFO-tag anti rabbit antibody (MSD cat# R32AB). For pY1150, cell lysate was added to MSD high binding plate […]
Signaling #3024). The bound insulin receptor was detected using combination of rabbit anti-insulin receptor b (C-19, Santa Cruz sc-711) and SULFO-tag anti rabbit antibody.
3. IGF-1R binding, cellular proliferation in SaoS2 cells and 2-deoxyglucose (2DG) update in mouse
IGF-1R affinity of IRPAs was assessed in a whole cell binding assay using a cell line stably expressing […]
activities of IRPAs as measured by EdU incorporation to SAOS2/B10 cells using the Click-it EdU (5-Ethynyl-2′-deoxyuridine; ThermoFisher Scientific) assay. To assess IRPA function downstream of the signaling cascade, [14C]-2-deoxyglucose cellular uptake in the differentiated mouse 3T3 L1 adipocytes was measured using standard protocol (3). […]
measured (S4a). Mouse white adipose tissue pAkt levels (S4b) were quantified in the same manner as other tissues […]

SAOS2/B10 cells = assay: Cellular proliferation, EdU incorporation (Click-it EdU); format: cell-based
Description: 3. […]
Ethynyl-2′-deoxyuridine; ThermoFisher Scientific) assay. […]

## RHI: recombinant human insulin, purchased from commercial sources
AAV-LIRKO and WT mice
  AUC reduction in AAV-LIRKO mice compared to WT mice: 30%
ApoE KO mice [1]
  Aortic plaque area (% to total surface): 33.7% and 21.2% and 20.3% and 22.7% and 23.8% and 26.1% and 21.1% and 26.6% and 22.5% and 26.7% and 29.0% and 23.3%
ApoE KO mice [2]
  Body ewight change (%) from pretreatment: 13.2% and 5.48% and 7.48% and 4.52% and 8.31% and 18.95% and 5.38% and -7.57% and 17.6% and 5.39% and 19.87% and 3% and 15.56%
[3]
  EC50: 6.6 nM
SAOS2/B10 cells; geometric mean of all independent titrations, EdU incorporation, four-parameter fit, read-out: Cell Proliferation Assay Total Ave EC50
  EC50: 6.53 nM
SAOS2/B10 cells; titration 1, read-out: Cell Proliferation Assay EC50-1
  EC50: 12.9 nM
SAOS2/B10 cells; titration 2, read-out: Cell Proliferation Assay EC50-2
  EC50: 3.1 nM
SAOS2/B10 cells; titration 3, read-out: Cell Proliferation Assay EC50-3
  EC50: 9.5 nM
SAOS2/B10 cells; titration 4, read-out: Cell Proliferation Assay EC50-4
  EC50: 9.5 nM
SAOS2/B10 cells; titration 5, read-out: Cell Proliferation Assay EC50-5
  EC50: 3.3 nM
